{"source": "patent US10251891B2", "about": "“Aprepitant oral liquid formulations” (InnoPharma, Inc., priority 2014, dated 2019)", "test": "Solubility of aprepitant in water", "assay_type": "physicochemical", "excerpt": "Moreover, it should be recognized that the particle size of the active pharmaceutical ingredient may have important effects on the bioavailability of a formulation. Smaller particle sizes often have increased surface area and will thus dissolve faster than larger particles. However, decreasing the particle size will often increase agglomeration of the particles, and an increased surface area of smaller particles can result in faster degradation of the compound, e.g., due to oxidation and/or hydrolysis. The inventors have now found out that a fine particle size, and especially an average particle size between 0.250 and 0.400 micron, could achieve a desirable bioavailability (typically identical to that of commercially available solid oral aprepitant, EMEND). Such particle size may preferably be achieved using air-jet milling, ball milling, or mortar milling."}
{"smiles": "C[C@@H](O[C@H]1OCCN(Cc2n[nH]c(=O)[nH]2)[C@H]1c1ccc(F)cc1)c1cc(C(F)(F)F)cc(C(F)(F)F)c1", "note": "[Aprepitant, 5-([(2R,3S)-2-((R)-1-[3,5-bis(trifluoromethyl)phenyl]ethoxy)-3-(4-fluoro-phenyl)morpholino]methyl)-1H-1,2,4-triazol-3(2H)-one]", "values": [{"measurement": "solubility in water", "result": "practically insoluble in water"}]}
